This is an account of results in US7709516B2, “Helix 12 directed non-steroidal antiandrogens” (Endorecherche, Inc., priority 2005, dated 2010).

Experiment [1] relates to rat prostate, seminal vesicle, levator ani muscle. Briefly: Systemic antiandrogenic activity in orchidectomized immature male rats with DHT implant. The class given is in vivo. To be noted: Rattus norvegicus, 168 h, rat +DHT, 0.5 mg/animal daily 7 days.
The target in experiment [2] is T1, Human Androgen Receptor (Homo sapiens, UniProt P10275).
T1 sequence (P10275 1-920): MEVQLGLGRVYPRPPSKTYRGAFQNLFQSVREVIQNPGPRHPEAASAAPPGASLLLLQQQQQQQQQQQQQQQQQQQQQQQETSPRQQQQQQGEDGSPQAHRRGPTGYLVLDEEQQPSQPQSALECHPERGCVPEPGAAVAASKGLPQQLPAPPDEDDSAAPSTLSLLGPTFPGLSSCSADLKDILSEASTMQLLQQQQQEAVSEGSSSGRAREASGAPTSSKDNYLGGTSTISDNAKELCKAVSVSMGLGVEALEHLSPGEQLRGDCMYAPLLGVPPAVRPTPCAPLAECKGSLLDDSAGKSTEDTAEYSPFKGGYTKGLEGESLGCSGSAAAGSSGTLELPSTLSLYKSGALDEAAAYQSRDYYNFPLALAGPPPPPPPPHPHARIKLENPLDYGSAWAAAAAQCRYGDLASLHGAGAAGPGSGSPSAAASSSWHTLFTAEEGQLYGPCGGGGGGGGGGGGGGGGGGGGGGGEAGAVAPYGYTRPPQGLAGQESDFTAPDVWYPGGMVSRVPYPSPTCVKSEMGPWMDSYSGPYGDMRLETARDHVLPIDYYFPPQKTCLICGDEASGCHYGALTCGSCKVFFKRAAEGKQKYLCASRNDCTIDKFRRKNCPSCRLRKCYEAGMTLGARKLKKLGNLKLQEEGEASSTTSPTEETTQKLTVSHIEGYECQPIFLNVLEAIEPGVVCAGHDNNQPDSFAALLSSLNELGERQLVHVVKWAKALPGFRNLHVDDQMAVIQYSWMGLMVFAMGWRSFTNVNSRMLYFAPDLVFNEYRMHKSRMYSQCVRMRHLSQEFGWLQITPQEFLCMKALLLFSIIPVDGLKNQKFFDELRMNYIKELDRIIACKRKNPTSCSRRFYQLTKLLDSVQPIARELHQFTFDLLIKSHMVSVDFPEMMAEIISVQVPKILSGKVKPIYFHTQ
The experiment can be described thus: Androgen receptor binding assay ([3H]R1881, HAP) in cytosol of HEK-293 cells transfected with hAR. To be noted: Table 1; relative to R1881 = 100, transfected cells.

Experiment [3] deals with Shionogi mouse mammary carcinoma cells. The experiment can be described thus: Androgenic/antiandrogenic activity: inhibition of DHT-stimulated Shionogi cell number. Format: cell-based. The note with it: Mus musculus, read-out: Shionogi Antiandrogenic Activity IC50, Table 1; DHT-stimulated Shionogi cell number.
Setting [4] is: read-out: Lev Ani % inhibition, Table 1, s.c. or p.o. (route not marked), levator ani.
[5] abbreviates: read-out: Prostate % inhibition, Table 1, s.c. or p.o. (route not marked in cell).
The mark [6] stands for this setting: read-out: SV % inhibition, Table 1, s.c. or p.o. (route not marked), seminal vesicle.

Like-named read-outs stand apart in the source and are kept apart here.

What is called IC50 is the concentration at which inhibition is half-maximal. Take `CC(C)NCc1cccc(OCCCN2C(=S)N(c3ccc(C#N)c(C(F)(F)F)c3)C(=O)C2(C)C)c1` [EM-7096]: the inhibition in vivo at 0.5 mg came to 50% in experiment [1] (setting [4]), 42% in experiment [1] (setting [5]) and 64% in experiment [1] (setting [6]). Moreover, in experiment [2], the “Human Androgen Receptor Binding (%) RBA R1881 = 100” value is reported as 3.0%. The 50% inhibitory concentration (IC50) in experiment [3] was determined as 0.0275 µM.
On to `CC(C)NCc1ccc(OCCCN2C(=S)N(c3ccc(C#N)c(C(F)(F)F)c3)C(=O)C2(C)C)cc1` [EM-7105], for which the inhibition in vivo at 0.5 mg in experiment [1] (setting [4]) stood at 45%; in experiment [1] (setting [5]) it was 60%; in experiment [1] (setting [6]) it was 81%. Further, in experiment [2], the “Human Androgen Receptor Binding (%) RBA R1881 = 100” value worked out at 11.7%. In addition, the half-maximal inhibitory concentration (IC50) in experiment [3] was 0.0118 µM.
In the case of `CCC(=O)c1cccc(OCCCN2C(=S)N(c3ccc(C#N)c(C(F)(F)F)c3)C(=O)C2(C)C)c1` [EM-7113, 4-{4,4-dimethyl-5-oxo-3-[3-(3-propionyl-phenoxy)-propyl]-2-thioxo-imidazolidin-1-yl}-2-trifluoromethyl-benzonitrile], the inhibition in vivo at 0.5 mg in experiment [1] (setting [4]) is 58%; in experiment [1] (setting [5]), 42%; in experiment [1] (setting [6]), 70%. For the same compound, the “Human Androgen Receptor Binding (%) RBA R1881 = 100” value in experiment [2] is 30.5%. For the same compound, the half-maximal inhibitory concentration (IC50) in experiment [3] is 0.069 µM.
For `CCC(CC)NCc1ccc(OCCCN2C(=S)N(c3ccc(C#N)c(C(F)(F)F)c3)C(=O)C2(C)C)cc1` [EM-7144], the inhibition in vivo at 0.5 mg in experiment [1] (setting [4]) came to 41%; in experiment [1] (setting [5]), 45%; in experiment [1] (setting [6]), 61%. Further, in experiment [2], the “Human Androgen Receptor Binding (%) RBA R1881 = 100” value was 14.0%. Moreover, the IC50 in experiment [3] is 0.0225 µM.
With `CCNCc1ccc(OCCCN2C(=S)N(c3ccc(C#N)c(C(F)(F)F)c3)C(=O)C2(C)C)cc1` [EM-7148], the figures for the inhibition in vivo at 0.5 mg in experiment [1] (setting [4]), in experiment [1] (setting [5]) and in experiment [1] (setting [6]) were 75%, 58% and 85%, respectively. Besides, in experiment [2], the “Human Androgen Receptor Binding (%) RBA R1881 = 100” value was determined as 12.0%. Moreover, the half-maximal inhibitory concentration (IC50) in experiment [3] amounted to 0.0061 µM.
The like results for `CCC(=O)c1ccc(OCCCN2C(=S)N(c3ccc(C#N)c(C(F)(F)F)c3)C(=O)C2(C)C)cc1` [EM-7154] were, in that order, 6%, 8%, 31%, 64.7% and 0.02 µM.
The like results for `CC(=O)c1ccc(OCCCN2C(=S)N(c3ccc(C#N)c(C(F)(F)F)c3)C(=O)C2(C)C)cc1` [EM-7168] were, in that order, 0%, 14%, 54%, 49.3% and 0.013 µM.
Turning to `CC(NC1CC1)c1ccc(OCCCN2C(=S)N(c3ccc(C#N)c(C(F)(F)F)c3)C(=O)C2(C)C)cc1` (stereo not drawn) [EM-7169], the inhibition in vivo at 0.5 mg in experiment [1] (setting [4]) is 31%; in experiment [1] (setting [5]) it was 45%; in experiment [1] (setting [6]), 72%. In experiment [2], the “Human Androgen Receptor Binding (%) RBA R1881 = 100” value was 21.7%. In addition, the concentration for half-maximal inhibition (IC50) in experiment [3] is 0.011 µM.
`CN(C)Cc1ccc(OCCCN2C(=S)N(c3ccc(C#N)c(C(F)(F)F)c3)C(=O)C2(C)C)cc1` [EM-7192]: the figures for the inhibition in vivo at 0.5 mg in experiment [1] (setting [4]), in experiment [1] (setting [5]) and in experiment [1] (setting [6]) were 0%, 53% and 75%, respectively. Also, the “Human Androgen Receptor Binding (%) RBA R1881 = 100” value in experiment [2] worked out at 15.6%. Moreover, in experiment [3], the half-maximal inhibitory concentration (IC50) is 0.0115 µM.
Take `CC(C)NC(=O)c1ccc(OCCCN2C(=S)N(c3ccc(C#N)c(C(F)(F)F)c3)C(=O)C2(C)C)cc1` [EM-7202]: the values for the inhibition in vivo at 0.5 mg in experiment [1] (setting [4]), in experiment [1] (setting [5]) and in experiment [1] (setting [6]) were 0%, 26% and 63%, respectively. Moreover, the “Human Androgen Receptor Binding (%) RBA R1881 = 100” value in experiment [2] stood at 37.0%. Also, the IC50 in experiment [3] stood at 0.0365 µM.
As to `CCC(NC(C)C)c1ccc(OCCCN2C(=S)N(c3ccc(C#N)c(C(F)(F)F)c3)C(=O)C2(C)C)cc1` (stereo not drawn) [EM-7203], the inhibition in vivo at 0.5 mg came to 4% in experiment [1] (setting [4]), 37% in experiment [1] (setting [5]) and 66% in experiment [1] (setting [6]). For the same compound, the “Human Androgen Receptor Binding (%) RBA R1881 = 100” value in experiment [2] amounted to 48.4%. Besides, the IC50 in experiment [3] was 0.0089 µM.
With `CCC(C)NCc1ccc(OCCCN2C(=S)N(c3ccc(C#N)c(C(F)(F)F)c3)C(=O)C2(C)C)cc1` (stereo not drawn) [EM-7225], the inhibition in vivo at 0.5 mg in experiment [1] (setting [4]) amounted to 14%; in experiment [1] (setting [5]) it was 52%; in experiment [1] (setting [6]), 71%. In experiment [2], the “Human Androgen Receptor Binding (%) RBA R1881 = 100” value is given as 15.3%. Moreover, the 50% inhibitory concentration (IC50) in experiment [3] was determined as 0.0125 µM.
With `CCCNCc1ccc(OCCCN2C(=S)N(c3ccc(C#N)c(C(F)(F)F)c3)C(=O)C2(C)C)cc1` [EM-7227], the inhibition in vivo at 0.5 mg in experiment [1] (setting [4]) was 1%; in experiment [1] (setting [5]), 35%; in experiment [1] (setting [6]), 77%. The “Human Androgen Receptor Binding (%) RBA R1881 = 100” value in experiment [2] worked out at 18.0%. For the same compound, the IC50 in experiment [3] is 0.0108 µM.
The like results for `CC1(C)C(=O)N(c2ccc(C#N)c(C(F)(F)F)c2)C(=S)N1CCCOc1ccc(CN2CCCC2)cc1` [EM-7232, 4-{4,4-Dimethyl-5-oxo-3-[3-(4-pyrrolidin-1-ylmethyl-phenoxy)-]-2-thioxo-imidazolidin-1-yl}-2-trifluoro-benzonitrile] were, in that order, 70%, 45%, 84%, 19.0% and 0.0076 µM.
For `CC(C)N(C)Cc1ccc(OCCCN2C(=S)N(c3ccc(C#N)c(C(F)(F)F)c3)C(=O)C2(C)C)cc1` [EM-7233], the inhibition in vivo at 0.5 mg in experiment [1] (setting [4]) was 70%; in experiment [1] (setting [5]), 54%; in experiment [1] (setting [6]), 82%. Besides, the “Human Androgen Receptor Binding (%) RBA R1881 = 100” value in experiment [2] was 15.0%. The IC50 in experiment [3] came to 0.012 µM.
With `CC(C)NC(C)c1ccc(OCCCN2C(=S)N(c3ccc(C#N)c(C(F)(F)F)c3)C(=O)C2(C)C)cc1` (stereo not drawn) [EM-7234, 4-(3-{3-[4-(1-Isopropylamino-ethyl)-phenoxy]-propyl}-4,4-dimethyl-5-oxo-2-thioxo-imidazolidin-1-yl)-2-tifluoromethyl-benzonitile], the inhibition in vivo at 0.5 mg amounted to 75% in experiment [1] (setting [4]), 50% in experiment [1] (setting [5]) and 82% in experiment [1] (setting [6]). Also, the “Human Androgen Receptor Binding (%) RBA R1881 = 100” value in experiment [2] is listed as 30.4%. For the same compound, the IC50 in experiment [3] was determined as 0.0062 µM.
With `CCN(C)Cc1ccc(OCCCN2C(=S)N(c3ccc(C#N)c(C(F)(F)F)c3)C(=O)C2(C)C)cc1` [EM-7242], the figures for the inhibition in vivo at 0.5 mg in experiment [1] (setting [4]), in experiment [1] (setting [5]) and in experiment [1] (setting [6]) were 55%, 41% and 72%, respectively. Moreover, the “Human Androgen Receptor Binding (%) RBA R1881 = 100” value in experiment [2] was 18.0%. Besides, in experiment [3], the half-maximal inhibitory concentration (IC50) was determined as 0.0098 µM.
For the compound `CC(c1ccc(OCCCN2C(=S)N(c3ccc(C#N)c(C(F)(F)F)c3)C(=O)C2(C)C)cc1)N(C)C` (stereo not drawn) [EM-7243], the inhibition in vivo at 0.5 mg in experiment [1] (setting [4]) turned out to be 73%; in experiment [1] (setting [5]), 34%; in experiment [1] (setting [6]), 72%. The “Human Androgen Receptor Binding (%) RBA R1881 = 100” value in experiment [2] is listed as 14.0%. Moreover, the half-maximal inhibitory concentration (IC50) in experiment [3] was 0.014 µM.
In the case of `CC1(C)C(=O)N(c2ccc(C#N)c(C(F)(F)F)c2)C(=S)N1CCCOc1ccc(CN2CCOCC2)cc1` [EM-7248], the values for the inhibition in vivo at 0.5 mg in experiment [1] (setting [4]), in experiment [1] (setting [5]) and in experiment [1] (setting [6]) were 44%, 37% and 62%, respectively. The “Human Androgen Receptor Binding (%) RBA R1881 = 100” value in experiment [2] was 32.4%. The IC50 in experiment [3] was found to be 0.019 µM.
As for `COC(=O)c1ccc(OCCCN2C(=S)N(c3ccc(C#N)c(C(F)(F)F)c3)C(=O)C2(C)C)cc1` [EM-7260], the figures for the inhibition in vivo at 0.5 mg in experiment [1] (setting [4]), in experiment [1] (setting [5]) and in experiment [1] (setting [6]) were 0%, 25% and 47%, respectively. Moreover, the “Human Androgen Receptor Binding (%) RBA R1881 = 100” value in experiment [2] was 93.3%. Further, the IC50 in experiment [3] is 0.017 µM.
For the compound `Cc1cc(CNC(C)C)ccc1OCCCN1C(=S)N(c2ccc(C#N)c(C(F)(F)F)c2)C(=O)C1(C)C` [EM-7297], the inhibition in vivo at 0.5 mg was found to be 31% in experiment [1] (setting [4]), 29% in experiment [1] (setting [5]) and 37% in experiment [1] (setting [6]). In experiment [2], the “Human Androgen Receptor Binding (%) RBA R1881 = 100” value is reported as 59.0%. In experiment [3], the IC50 was 0.0063 µM.
